# Laboratory results as given in patent EP0193189A1, “Novel compound, its production and insecticidal and acaricidal composition containing it as an active ingredient” (SUMITOMO CHEMICAL COMPANY, LIMITED, priority 1985, dated 1986).
# Read-outs that look alike come from different tables or passages of the source.
# Legend:
# [1] = test system: tobacco cutworms (Spodoptera litura); assay: Test Example 2: tobacco cutworm larvae on treated artificial feed; format: in vivo; conditions: Spodoptera litura, 144 h
# From the text: The emulsifiable concentrates of the following present compounds obtained according to Formulation example 2 were each diluted with water to obtain respective 667 times dilution aqueous solutions (corresponding to 150 ppm) containing said compounds, respectively. Two ml of thus diluted solutions were impregnated into the artificial feeds (13 g) for tobacco cutworms (Spodoptera litura) and thus prepared feeds were placed in polyethylene cups of 11 cm in diameter, respectively. Ten of the 4th instar larvae were liberated thereon.
# Six days after, the dead and alive of the larvae were examined to calculate the mortality (two replications).
# [2] = test system: common mosquito (Culex pipiens pallens); assay: Test Example 1: common mosquito larvae in diluted emulsifiable concentrate, mortality and emergence inhibition; format: in vivo; conditions: Culex pipiens; for mortality at 3.5 ppm: 24 h; for pest or weed control at 3.5 ppm: counted when all pupae of no treatment group had emerged, read-out: Inhibitory ratio of emergence
# Procedure: The emulsifiable concentrates of the following present compounds obtained according to Formulation example 2 were each diluted with water so as to obtain respective aqueous solutions containing 3.5 ppm of said compounds, respectively. One hundred ml of thus diluted aqueous solutions were poured into respective polyethylene cups of 180 ml volume, and 20 of the last instar larvae of common mosquito (Culex pipiens pallens) were liberated thereto. After one day, the dead or alive of the larvae were examined.
# Thereafter, the feed was added to respective cups and the number of emerged pupae of the respective cups was counted when all the pupae of no treatment group had emerged to calculate the inhibitory ratios of the emergence.
# The mortality and the inhibitory ratio of the emergence are shown according to the following three criteria: • mortality: A; 90% or more, • B; less than 90% to 10%, • C; less than 10%. • inhibitory: A; 90% or more, ratio of • emergence B; less than 90% to 80% • C; less than 80%.
# [3] = test system: carmine spider mite (Tetranychus cinnabarinus); assay: Test Example 8: carmine spider mite on potted kidney bean, degree of damage; format: in vivo; parameters: key: -: No damage is observed.; +: Slight damage is observed.; ++: The same damage as in the untreated plot is observed; conditions: 500 ppm spray 10 ml/pot plus 2 ml soil treatment; after 8 days
# Procedure: The female adults of carmine spider mite (Tetranychus cinnabarinus) were put at a rate of 10 adults/leaf on the leaves of potted kidney bean (at the primordial leaf stage) which had elapsed 7 days after sowing, and placed in a constant-temperature room kept at 25°C. After 6 days, the 200-fold aqueous dilute solutions (corresponding to 500 ppm), prepared from the emulsifiable concentrates of the following present compounds and control compounds prepared according to Formulation example 2, were each sprayed at a rate of 10 ml/pot on a turn table. At the same time, the soil in the pot was treated with 2 ml of each aqueous solution. After 8 days, the degree of damage of the plant by the mite was examined.
# Criteria of the effect: • - : No damage is observed. • + : Slight damage is observed. • ++: The same damage as in the untreated plot is observed.
# [4] = test system: brown rice planthoppers (Nila^parvata luqens); assay: Test Example 7: spray on potted rice plants, brown rice planthopper, residual effect; format: in vivo; conditions: 20 h
# Procedure: The emulsifiable concentrates of the following compounds and control compounds obtained according to Formulation example 2 were each diluted with water one thousand times (corresponding to 100 ppm) and each of thus prepared solutions was sprayed at the rate of 20 ml/2 pots to the rice plant seedlings planted in Wagner pots having a surface area of one ten thousandth are. After air-drying, the treated plants were covered with the iron wire cages, and about 15 adults of brown rice planthoppers (Nila^parvata luqens) were liberated thereto. Further, about 15 adults thereof were also liberated thereto 4 days after the application to examine the residual effects. Twenty hours after each liberation, the dead and alive adults were examined to calculate the mortality.
# [5] = test system: resistant strain of green rice leafhopper (Nephotetix cincticeps); assay: Test Example 3: rice seedling dip test, resistant green rice leafhopper; format: in vivo; conditions: Nephotettix cincticeps, 24 h, adults of resistant strain, after one day
# Procedure: The emulsifiable concentrates of the following present compounds and control compounds obtained according to Formulation example 2 were each diluted with water to a prescribed concentration, and rice seedlings (about 12 cm in length) were dipped for 1 minute in the resulting aqueous dilute solutions. After air-drying, the seedlings were placed in test tube, and 10 adults of a resistant strain of green rice leafhopper (Nephotetix cincticeps) were liberated in the tube. After one day, the dead and alive of the adults were examined to obtain LC50 (50% lethal concentration)(two replications).
# [6] = Test Example 9: fish toxicity test; format: in vivo, Cyprinida carpio; conditions: water; young carp; forty-eight hours; 25 ± 1°C; Probit method; read-out: LC50 value (ppm)
# Procedure: Twenty liters of each of the aqueous solutions containing the prescribed concentrations of the present compounds and comparative control one, and 10 young carp were liberated thereto. Forty-eight hours after, the dead and alive carp were examined to obtain LC50 value, (50% lethal concentration) according to Probit method. All the tests were carried out in thermostatic aquaria whose temperatures were kept at 25 ± 1°C.
# Tested fish: young Japanese carp (Cyprinida carpio) Average body length ± S.D.: 2.94 ± 0.19 cm. Average.body weight ± S.D.: 0.65 ± 0.13 g.
# [7] = test system: brown rice planthopper (Nila^parvata luqens); assay: Test Example 4: rice seedling dip test, brown rice planthopper; format: in vivo; conditions: 24 h, read-out: LC50 value (ppm)
# Procedure: The emulsifiable concentrates of the-following present compounds and control compounds obtained according to Formulation example 2 were each diluted with water to a prescribed concentration, and the rice seedlings (about 12 cm in length) were dipped for 1 minute in the resulting aqueous dilute solutions. After air-drying, the seedlings were placed in a test tube, and 10 adults of brown rice planthopper (Nila^parvata luqens) were liberated in the tube. After one day, the dead and alive of the adults were examined to obtain LC50 value (50% lethal concentration)(two replications).
# [8] = test system: rice stem borer (Chilo suppressalis); assay: Test Example 5: rice stem borer larvae on treated artificial feed; format: in vivo; conditions: read-out: LC50 value (ppm)
# From the text: The emulsifiable concentrates of the following present compounds and control compounds obtained according to Formulation example 2 were each diluted with water to a prescribed concentration, and one ml each of thus prepared solutions was impregnated into the artificial feeds for rice stem borer (Chilo suppressalis) which had been previously prepared in polyethylene cups of 5.5 cm in diameter, respectively. Ten of the larvae of the 10 days old were liberated thereon. The dead and alive larvae were examined to obtain LC50 value (50% lethal concentration) (two replications).
# [9] = test system: houseflies (Musca domestica) of WHO strains; assay: Test Example 6: housefly filter paper and sucrose bait test; format: in vivo; conditions: 0.7 ml on filter paper with sucrose bait, adult females, after 48 hours, read-out: LC50 value (ppm)
# Procedure: On the bottom of a polyethylene cup of 5.5 cm- in diameter was placed a piece of filter paper of the same size as the bottom, and 0.7 ml of a test solution, prepared by diluting the emulsifiable concentrates of the following present compounds and control compounds prepared according to Formulation example 2 to a prescribed concentration with water, was added dropwise to the filter paper. Thirty milligrams of sucrose were uniformly placed on the filter paper as bait. Thereafter, 10 adult female houseflies (Musca domestica) of WHO strains were liberated in the cup, which was then covered with a lid. After 48 hours, the dead and alive were examined to obtain LC50 value (50% lethal concentration) (two replications).
# [10] = 150 ppm solution, 2 ml in 13 g artificial feed, 4th instar larvae, six days after, read-out: Mortality (%)
# [11] = 3.5 ppm, 20 last instar larvae, after one day, read-out: Mortality
# [12] = 100 ppm spray, 20 ml/2 pots, residual effect, twenty hours after liberation, read-out: Mortality (%) liberated 4 days after application
# [13] = 100 ppm spray, 20 ml/2 pots, twenty hours after liberation, read-out: Mortality (%) liberated just after air-drying
# [14] = read-out: LC50 value (ppm), rice seedlings dipped 1 minute
# [15] = read-out: Mortality (%) liberated 4 days after application
# [16] = read-out: Mortality (%) liberated just after air-drying
# [17] = rice seedlings dipped 1 minute, read-out: LC50 value (ppm)
# [18] = rice seedlings dipped 1 minute, adults, after one day
# [19] = 1 ml solution in artificial feed, larvae 10 days old
smiles,measurement,setting,value
"C=CC(C)(CCCc1cccc(Oc2ccccc2)c1)c1ccc(OCC)cc1 (stereo not drawn) [(1), 3-(4-ethoxyphenyl)-3-methyl-6-(3-phenoxyphenyl)-l-hexene]",mortality at 150 ppm,[1]; [10],100%
same,mortality at 3.5 ppm,[2]; [11],> 90%
same,pest or weed control at 3.5 ppm,[2]; 3.5 ppm,> 90%
same,Degree of damage,[3],- ~ +
same,mortality at 100 ppm,[4]; [12],100%
same,mortality at 100 ppm,[4]; [13],100%
"C#CC(C)(CCCc1cccc(Oc2ccccc2)c1)c1ccc(OCC)cc1 (stereo not drawn) [(3), 3-(4-ethoxyphenyl)-3-methyl-6-(3-phenoxyphenyl)-1-hexyne]",mortality at 150 ppm,[1],100%
same,mortality at 3.5 ppm,[2],> 90%
same,pest or weed control at 3.5 ppm,[2]; 3.5 ppm,> 90%
same,LC50,[5]; [14],18 µg/mL
same,LC50 at 48 h,[6],> 10 µg/mL
same,LC50,[7],34 µg/mL
same,Degree of damage,[3],-
same,LC50,[8],3.6 µg/mL
same,mortality at 100 ppm,[4]; [15],95%
same,mortality at 100 ppm,[4]; [16],100%
C#CC(C)(CCCc1ccc(F)c(Oc2ccccc2)c1)c1ccc(OCC)cc1 (stereo not drawn) [(4)],mortality at 150 ppm,[1]; [10],100%
same,mortality at 3.5 ppm,[2]; [11],> 90%
same,pest or weed control at 3.5 ppm,[2]; 3.5 ppm,> 90%
same,LC50,[5]; [17],10 µg/mL
same,LC50 at 48 h,[6],> 10 µg/mL
same,LC50,[7]; [18],24 µg/mL
same,LC50,[9],18 µg/mL
same,LC50,[8]; [19],1.9 µg/mL
same,mortality at 100 ppm,[4]; [12],100%
same,mortality at 100 ppm,[4]; [13],100%
C#CC(C)(CCCc1ccc(F)c(Oc2ccccc2)c1)c1ccc(OC(F)F)cc1 (stereo not drawn) [(6)],mortality at 150 ppm,[1]; [10],100%
same,mortality at 3.5 ppm,[2]; [11],> 90%
same,pest or weed control at 3.5 ppm,[2]; 3.5 ppm,> 90%
same,LC50,[5]; [17],36 µg/mL
same,LC50,[9],15 µg/mL
same,LC50,[8]; [19],1.9 µg/mL
"C#CC(C)(CCCc1cccc(Oc2ccccc2)c1)c1ccc(OCC=C)cc1 (stereo not drawn) [(7), 3-(4-allyloxyphenyl)-3-methyl-6-(3-phenoxyphenyl)-1-hexyne]",mortality at 150 ppm,[1],100%
same,mortality at 3.5 ppm,[2],10 to 90%
same,pest or weed control at 3.5 ppm,[2]; 3.5 ppm,> 90%
same,Degree of damage,[3],-
same,mortality at 100 ppm,[4]; [15],93%
same,mortality at 100 ppm,[4]; [16],100%
C#CC(C)(CCCc1ccc(F)c(Oc2ccccc2)c1)c1ccc(F)cc1 (stereo not drawn) [(9)],mortality at 150 ppm,[1]; [10],100%
same,mortality at 3.5 ppm,[2]; [11],> 90%
same,pest or weed control at 3.5 ppm,[2]; 3.5 ppm,> 90%
same,LC50,[5]; [17],49 µg/mL
same,LC50,[8]; [19],4.2 µg/mL
C#CC(C)(CCCc1ccc(F)c(Oc2ccccc2)c1)c1ccc(OCC)c(Cl)c1 (stereo not drawn) [(11)],mortality at 150 ppm,[1]; [10],100%
same,mortality at 3.5 ppm,[2]; [11],> 90%
same,pest or weed control at 3.5 ppm,[2]; 3.5 ppm,> 90%
same,LC50,[5]; [17],49 µg/mL
same,LC50,[9],12 µg/mL
same,LC50,[8]; [19],2.3 µg/mL
"C#CC(C)(CCCc1cccc(Oc2ccccc2)c1)c1ccc(OC(F)F)cc1 (stereo not drawn) [(17), 3-(4-difluoromethoxyphenyl)-3-methyl-6-(3-phenoxyphenyl)-l-hexyne]",mortality at 150 ppm,[1]; [10],100%
same,mortality at 3.5 ppm,[2]; [11],> 90%
same,pest or weed control at 3.5 ppm,[2]; 3.5 ppm,> 90%
same,LC50,[5]; [17],68 µg/mL
same,LC50,[8]; [19],3.6 µg/mL
C#CC(C)(CCCc1ccc(F)c(Oc2ccccc2)n1)c1ccc(OCC)cc1 (stereo not drawn) [(20)],mortality at 150 ppm,[1]; [10],100%
same,mortality at 3.5 ppm,[2]; [11],> 90%
same,pest or weed control at 3.5 ppm,[2]; 3.5 ppm,> 90%
same,LC50,[5]; [17],74 µg/mL
same,LC50,[7]; [18],25 µg/mL
same,Degree of damage,[3],- ~ +
C#CC(C)(CCCc1ccc(F)c(Nc2ccccc2)c1)c1ccc(OCC)cc1 (stereo not drawn) [(21)],mortality at 150 ppm,[1]; [10],100%
same,mortality at 3.5 ppm,[2]; [11],> 90%
same,pest or weed control at 3.5 ppm,[2]; 3.5 ppm,> 90%
same,LC50,[5]; [17],24 µg/mL
same,LC50,[7]; [18],15 µg/mL
same,LC50,[8]; [19],1.5 µg/mL
C#CC(C)(CCCc1ccc(F)c(Oc2ccc(Cl)cc2)c1)c1ccc(OCC)cc1 (stereo not drawn) [(34)],mortality at 150 ppm,[1]; [10],100%
same,mortality at 3.5 ppm,[2]; [11],> 90%
same,pest or weed control at 3.5 ppm,[2]; 3.5 ppm,> 90%
same,LC50,[5]; [17],18 µg/mL
same,LC50,[8]; [19],4.2 µg/mL
C#CC(C)(CCCc1ccc(F)c(Oc2ccccc2)c1)c1ccc(CC)cc1 (stereo not drawn) [(39)],mortality at 150 ppm,[1]; [10],100%
same,mortality at 3.5 ppm,[2]; [11],> 90%
same,pest or weed control at 3.5 ppm,[2]; 3.5 ppm,> 90%
same,LC50,[5]; [17],21 µg/mL
same,LC50,[9],17 µg/mL
same,Degree of damage,[3],- ~ +
C#CC(CCCc1ccc(F)c(Oc2ccccc2)c1)c1ccc(OCC)cc1 (stereo not drawn) [(43)],mortality at 150 ppm,[1]; [10],100%
same,mortality at 3.5 ppm,[2]; [11],> 90%
same,pest or weed control at 3.5 ppm,[2]; 3.5 ppm,> 90%
same,LC50,[5]; [17],74 µg/mL
same,Degree of damage,[3],- ~ +
"CCOc1ccc(C(C)(C)COCc2cccc(Oc3ccccc3)c2)cc1 [(B), reference compound]",LC50,[7]; [18],110 µg/mL
same,LC50,[9],28 µg/mL
same,Degree of damage,[3],- ~ ++
same,LC50,[8]; [19],7.4 µg/mL
same,mortality at 100 ppm,[4]; [12],65%
same,mortality at 100 ppm,[4]; [13],10%
"CCOC(=O)CC(SP(=S)(OC)OC)C(=O)OCC (stereo not drawn) [(D), Malathion, reference compound]",LC50,[5]; [14],~500 µg/mL
same,LC50 at 48 h,[6],4.5 µg/mL
